{
  "source": "patent US20240180165A1",
  "about": "“ACTIVATION OF BIONEMATICIDE AND PLANT GROWTH PROMOTING FUNCTIONS IN A BIOTECHNOLOGICAL SOLUTION COMPRISING TWO OR MORE BACILLUS SPECIES AND ALLICIN; INDUSTRIAL PROCESS AND APPLICATION THEREOF” (TOTAL BIOTECNOLOGIA INDÚSTRIA E COMÉRICO S/A, priority 2021, published 2024)",
  "origin": "cited, not measured here",
  "test_system": "Gram-negative and Gram-positive bacteria, including the Bacillus genus",
  "details": "even at low concentrations (UM)",
  "data": [
    {"smiles": "C=CCS[S+]([O-])CC=C", "note": "(stereo not shown) [allicin]", "values": [
      {"measurement": "antimicrobial activity", "result": "broad antimicrobial activity"}
    ]}
  ]
}
